The experiment can be described thus: DPPH radical scavenging antioxidant test. It is filed as biochemical. The note with it: for Inhibition (radical scavenging inhibition): 0.2 mL DPPH (0.75 mM), compound 3 μM in ethanol, 30 minutes in the dark, 517 nm. The protocol:
The antioxidant properties of the 8-((4-hydroxynaphthalen-1-yl)diazenyl)naphthalene-1,3-disulfonic acid compound were studied by adding 0.2 mL DPPH (0.75 mM)) to 8-((4-hydroxynaphthalen-1-yl)diazenyl)naphthalene-1,3-disulfonic acid (III) (3 μM) in ethanol. After 30 minutes of incubation in the dark, the absorbance was read against a blank at 517 nm. Ascorbic acid (vitamin C) was used as standard antioxidants (positive control). A blank sample was prepared by 0.2 ml of DPPH in 3 mL ethanol. A negative control sample was run using ethanol instead of the sample. The radical scavenging inhibition was calculated using the following equation: […]
On the technique in general: Loss of DPPH colour is used to gauge radical scavenging.

Structures are written as SMILES.

As for `O=C1O[C@H]([C@@H](O)CO)C(O)=C1O` [vit c, Ascorbic acid, reference compound], the “Inhibition (radical scavenging inhibition)” value amounted to 74%.

`O=S(=O)(O)c1cc(S(=O)(=O)O)c2c(/N=N/c3ccc(O)c4ccccc34)cccc2c1` [Product III, 8-((4-hydroxynaphthalen-1-yl)diazenyl)naphthalene-1,3-disulfonic acid]: the “Inhibition (radical scavenging inhibition)” value turned out to be 52%. In addition, for the setting “DPPH in vitro test, vitamin C as positive control”, the “antioxidant potential (vanishing DPPH radical colors at 517 nm)” value is recorded as “high potential as an antioxidant compared to vitamin C”.

The values above are taken from patent US11970437B1, “8-((4-hydroxynaphthalen-1-yl)diazenyl)naphthalene-1,3-disulfonic acid as an antioxidant compound” (KING FAISAL UNIVERSITY, priority 2023, dated 2024).
